Counter-ions that a name gives are not always drawn.

The first test concerns degradation of plasma clots. The test can be described thus: Plasma clot lysis assay. The format is biochemical, human.
Conditions: not given
The procedure: To determine the inhibitory effect of the compounds of the invention on the degradation of plasma clots.
3.1 Collect fresh healthy human blood, mix 1 part of anticoagulant (0.109 M trisodium citrate) with 9 parts of blood, centrifuge at 2000×g for 20 min at room temperature, collect the supernatant (plasma), sub-package and store at −80° C. for later use.
3.2 On the day of experiment, the plasma was thawed in a water bath at 37° C., and all reagents except tPA were pre-warmed at 37° C.
3.3 Add 12.5 μL of 80 mM CaCl2 (HEPES buffer, pH 7.4) to a 96-well plate, and then add 25 μL of different concentrations of test compound diluted with normal saline, add an equal volume of normal saline to the negative control well.
3.4 Mix 50 μL of pre-warmed plasma with 12.5 μL of 4 nM tPA (HEPES buffer, pH 7.4), immediately add to a 96-well plate, measure the absorbance at 405 nm every 2 minutes, continuously for 15 hours.
The time corresponding to the median of the absorption value in the descending section—the time corresponding to the median of the absorption value in the ascending section is the plasma clot degradation time (Clot lysis time). Taking the plasma clot lysis time of the negative control well as a reference, calculate the relative value of the plasma clot lysis time in the wells treated with different concentrations of the compound and the plasma clot lysis time of the negative control well to obtain the inhibition rate:
Inhibition rate%=(1−Clot lysis time of negative control well/Clot lysis time of compound treated well)×100%
Taking the log value of the compound concentration as the X-axis, and the percentage inhibition rate as the Y-axis, and dose-response curves were fitted with the software GraphPad Prism 5 by using log (inhibitor) vs. Response-Variable slope to derive IC50 values of compounds inhibiting the degradation of plasma clots.
Formula: Y=min+(max−min)/(1+10^((LogIC50−X)×Hillslope).
With `Cl.O=C(O)c1ccc2c(n1)CC(C(O)CCCO)NC2` (stereo not drawn) [Example 13, 7-(1,4-dihydroxybutyl)-5,6,7,8-tetrahydro-1,6-naphthyridine-2-carboxylic acid hydrochloride], the “IC50 ratio (IC50 Examples/IC50 Tranexamic acid)” value (shortened to “IC50 ratio”) came to 1.63.

Still in this test, the particulars now being: human plasma, tPA, inhibition of plasma clot degradation in vitro relative to tranexamic acid.
`Cl.O=C(O)c1ccc2c(n1)C(O)CNC2` (stereo not drawn) [Example 2, 8-hydroxy-5,6,7,8-tetrahydro-1,6-naphthyridine-2-carboxylic acid hydrochloride]: the “IC50 ratio” value is on record as 1.24. On the same count and under the same terms, for `NC1CNCc2ccc(C(=O)O)nc21` (stereo not drawn) [Example 3, 8-amino-5,6,7,8-tetrahydro-1,6-naphthyridine-2-carboxylic acid dihydrochloride] the value was 2.89.

In the case of `Cl.O=C(O)c1ccc2c(n1)C(N1CCOCC1)CNC2` (stereo not drawn) [Example 5, 8-morpholino-5,6,7,8-tetrahydro-1,6-naphthyridine-2-carboxylic acid hydrochloride], the “IC50 ratio” value is recorded as 0.29. Same read-out and setting: the same measure for `Cl.O=C(O)c1ccc2c(n1)C(N1CCS(=O)(=O)CC1)CNC2` (stereo not drawn) [Example 6, 8-(1,1-dioxido-thiomorpholino)-5,6,7,8-tetrahydro-1,6-naphthyridine-2-carboxylic acid hydrochloride]: 0.31. Still for that read-out and setting: for `Cl.O=C(O)c1ccc2c(n1)CC(COCCCO)NC2` (stereo not drawn) [Example 7, 7-((3-hydroxypropoxy)methyl)-5,6,7,8-tetrahydro-1,6-naphthyridine-2-carboxylic acid hydrochloride] the value was 0.25; for `Cl.O=C(O)c1ccc2c(n1)CC(C1(O)CC1)NC2` (stereo not drawn) [Example 9, 7-(1-hydroxycyclopropyl)-5,6,7,8-tetrahydro-1,6-naphthyridine-2-carboxylic acid hydrochloride], 0.44.

Take `Cl.O=C(O)c1ccc2c(n1)CC(CCCCO)NC2` (stereo not drawn) [Example 10, 7-(4-hydroxybutyl)-5,6,7,8-tetrahydro-1,6-naphthyridine-2-carboxylic acid hydrochloride]: the “IC50 ratio” value came out at 0.18. As to `O=C(O)c1ccc2c(n1)CC(CNCCCO)NC2` (stereo not drawn) [Example 11, 7-(((3-hydroxypropyl)amino)methyl)-5,6,7,8-tetrahydro-1,6-naphthyridine-2-carboxylic acid dihydrochloride], the “IC50 ratio” value turned out to be 2.58. Same read-out and setting: for `Cl.O=C(O)c1ccc2c(n1)CC(C(O)c1ccccc1)NC2` (stereo not drawn) [Example 12, 7-(hydroxy(phenyl)methyl)-5,6,7,8-tetrahydro-1,6-naphthyridine-2-carboxylic acid hydrochloride] the value was 0.88. On the same count and under the same terms, the same measure for `Cl.O=C(O)c1ccc2c(n1)C(N1CCOC(Cc3ccccc3)C1)CNC2` (stereo not drawn) [Example 15, 8-(2-benzylmorpholino)-5,6,7,8-tetrahydro-1,6-naphthyridine-2-carboxylic acid hydrochloride]: 0.57; for `Cl.O=C(O)c1ccc2c(n1)CC(C(=O)O)NC2` (stereo not drawn) [Example 16, 5,6,7,8-tetrahydro-1,6-naphthyridine-2,7-dicarboxylic acid hydrochloride]: 0.54. Still for that read-out and setting: for `Cl.O=C(O)c1nc2c(cc1F)CNCC2` [Example 17, 3-fluoro-5,6,7,8-tetrahydro-1,6-naphthyridine-2-carboxylic acid hydrochloride] the value was 0.34; for `Cl.O=C(O)c1ccc2c(n1)C(OCCO)CNC2` (stereo not drawn) [Example 18], 0.66; for `Cl.O=C(O)c1ccc2c(n1)C(N1CCCCC1)CNC2` (stereo not drawn) [Example 19], 5.75. Turning to `Cl.O=C(O)c1ccc2c(n1)C(N1CCSCC1)CNC2` (stereo not drawn) [Example 20], the “IC50 ratio” value was found to be 0.50.

In the case of `Cl.O=C(O)c1ccc2c(n1)C(N1CC[S+]([O-])CC1)CNC2` (stereo not drawn) [Example 21], the “IC50 ratio” value was found to be 0.14. With `Cl.O=C(O)c1ccc2c(n1)C(N1CCNCC1)CNC2` (stereo not drawn) [Example 22], the “IC50 ratio” value is on record as 0.67. The same measure, in the same setting: the same measure for `Cl.O=C(O)c1ccc2c(n1)CC(CO)NC2` (stereo not drawn) [Example 23]: 0.17; for `CC(C)(O)C1Cc2nc(C(=O)O)ccc2CN1.Cl` (stereo not drawn) [Example 24]: 1.67. Same read-out and setting: the same measure for `Cl.O=C(O)c1ccc2c(n1)CC(CO)(CO)NC2` [Example 25]: 6.36. Turning to `CC(C)CC1Cc2nc(C(=O)O)ccc2CN1.Cl` (stereo not drawn) [Example 26], the “IC50 ratio” value was 0.22. On the same count and under the same terms, the same measure for `Cl.O=C(O)c1ccc2c(n1)CC(Cc1ccccc1)NC2` (stereo not drawn) [Example 27]: 0.67. Still for that read-out and setting: the same measure for `Cl.O=C(O)c1ccc2c(n1)CC(CCCCCO)NC2` (stereo not drawn) [Example 28]: 0.27; for `Cl.O=C(O)c1ccc2c(n1)CC(C(=O)NCCO)NC2` (stereo not drawn) [Example 29]: 2.26; for `Cl.O=C(O)c1ccc2c(n1)CC(C(=O)OCCCO)NC2` (stereo not drawn) [Example 30]: 0.32. On the same count and under the same terms, for `O=C(O)c1ccc2c(n1)CC(CNCCO)NC2` (stereo not drawn) [Example 31] the value was 1.87; for `Cl.O=C(O)c1ccc2c(n1)CC(COCCO)NC2` (stereo not drawn) [Example 32], 0.61; for `CC(C)C(O)C1Cc2nc(C(=O)O)ccc2CN1.Cl` (stereo not drawn) [Example 33], 0.53.

On to `Cl.O=C(O)c1ccc2c(n1)CC(CCCc1ccccc1)NC2` (stereo not drawn) [Example 34], for which the “IC50 ratio” value worked out at 0.11. For the compound `Cl.O=C(O)c1ccc2c(n1)CC(CCc1ccccc1)NC2` (stereo not drawn) [Example 35], the “IC50 ratio” value was determined as 0.12.

Regarding `CC(C)(C)CC1Cc2nc(C(=O)O)ccc2CN1.Cl` (stereo not drawn) [Example 36], the “IC50 ratio” value is recorded as 0.13. On to `CC(C)C1Cc2nc(C(=O)O)ccc2CN1.Cl` (stereo not drawn) [Example 37], for which the “IC50 ratio” value was 0.18. Turning to `CC(C)CCC1Cc2nc(C(=O)O)ccc2CN1.Cl` (stereo not drawn) [Example 38], the “IC50 ratio” value was determined as 0.13.

Turning to `CCCC1Cc2nc(C(=O)O)ccc2CN1.Cl` (stereo not drawn) [Example 39], the “IC50 ratio” value worked out at 0.17. On the same count and under the same terms, the same measure for `CC(C)(C)CCC1Cc2nc(C(=O)O)ccc2CN1.Cl` (stereo not drawn) [Example 40]: 0.18; for `Cl.O=C(O)c1ccc2c(n1)CC(CC1CCCCC1)NC2` (stereo not drawn) [Example 41]: 0.12; for `COc1ccc(CCC2Cc3nc(C(=O)O)ccc3CN2)cc1.Cl` (stereo not drawn) [Example 42]: 0.17. On the same count and under the same terms, for `Cl.O=C(O)c1ccc2c(n1)CC(CCC1CCCCC1)NC2` (stereo not drawn) [Example 43] the value was 0.11; for `Cl.O=C(O)c1ccc2c(n1)CC1(CCOCC1)NC2` [Example 44], 0.23; for `CCC1(CC)Cc2nc(C(=O)O)ccc2CN1.Cl` [Example 45, 7,7-diethyl-5,6,7,8-tetrahydro-1,6-naphthyridine-2-carboxylic acid hydrochloride], 0.57.

On to `Cl.O=C(O)c1ccc2c(n1)CC1(CCCC1)NC2` [Example 46], for which the “IC50 ratio” value came out at 0.33. On the same count and under the same terms, the same measure for `Cl.O=C(O)c1ccc2c(n1)CC1(CCCCC1)NC2` [Example 47]: 0.40. On the same count and under the same terms, the same measure for `CC(C)CC1(CC(C)C)Cc2nc(C(=O)O)ccc2CN1.Cl` [Example 48]: 0.42; for `Cl.O=C(O)c1ccc2c(n1)CC1(CCC1)NC2` [Example 49]: 0.28.

(Values after patent publication US20240124443A1, “PLASMIN INHIBITOR, PREPARATION METHOD THEREFOR, AND APPLICATION THEREOF” (SCINNOHUB PHARMACEUTICAL CO., LTD, priority 2021, published 2024).)
